The target in one data set is T1, FXR (Homo sapiens, UniProt Q96RI1).
T1 construct: expressed in transfected cells; host or cells: CV-1 cells, transient cotransfection
T1 sequence (Q96RI1 1-486): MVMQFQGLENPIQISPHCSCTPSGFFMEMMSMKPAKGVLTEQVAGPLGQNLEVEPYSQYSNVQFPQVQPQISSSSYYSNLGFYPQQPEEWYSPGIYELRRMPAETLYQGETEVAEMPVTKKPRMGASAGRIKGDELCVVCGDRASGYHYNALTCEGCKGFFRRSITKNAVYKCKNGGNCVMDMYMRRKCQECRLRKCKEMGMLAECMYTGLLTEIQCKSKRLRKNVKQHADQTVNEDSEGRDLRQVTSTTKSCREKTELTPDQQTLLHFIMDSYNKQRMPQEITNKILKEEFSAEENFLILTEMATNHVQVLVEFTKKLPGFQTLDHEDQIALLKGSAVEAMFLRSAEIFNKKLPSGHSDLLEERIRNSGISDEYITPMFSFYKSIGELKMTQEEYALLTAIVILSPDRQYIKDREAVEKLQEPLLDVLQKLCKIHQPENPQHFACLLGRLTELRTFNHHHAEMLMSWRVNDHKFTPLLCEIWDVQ
T1 sequence (P19793 1-462 partner): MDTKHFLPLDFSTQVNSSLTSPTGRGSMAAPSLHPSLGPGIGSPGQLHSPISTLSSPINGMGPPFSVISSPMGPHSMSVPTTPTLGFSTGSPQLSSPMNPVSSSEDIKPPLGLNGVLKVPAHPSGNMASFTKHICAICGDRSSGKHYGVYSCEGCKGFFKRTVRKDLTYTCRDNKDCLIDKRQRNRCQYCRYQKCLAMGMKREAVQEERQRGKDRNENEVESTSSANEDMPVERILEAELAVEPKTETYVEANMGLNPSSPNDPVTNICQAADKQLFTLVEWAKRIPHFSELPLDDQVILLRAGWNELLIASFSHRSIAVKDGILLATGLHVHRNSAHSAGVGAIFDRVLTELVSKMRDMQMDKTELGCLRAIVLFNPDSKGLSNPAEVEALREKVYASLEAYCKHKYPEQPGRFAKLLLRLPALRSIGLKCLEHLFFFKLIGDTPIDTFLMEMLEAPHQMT
Kind of data set: FXR Agonist Tranactivation Assay (luciferase reporter, CV-1 cells). The format is cell-based. Particulars: at 10 μM; CV-1 cells cotransfected with pCMV6-NR1H4 (FXR), pCMV6-RXRA and pEcREX7-TK-Luc; positive control 10 uM XL-335; 20 hours. The procedure:
CV-1 cells were transiently cotransfected with pCMV6-NR1H4 (FXR), pCMV6-RXRA and reporter plasmid pEcREX7-TK-Luc. Five hours after transfection, cells were trypsinized and dispensed into 96-well plates at a concentration of 10,000 cells per well.
Compound Dilution and Addition: Starting from 3.33 mM of compound in DMSO solution a 10-point 3-fold serial dilution was made by diluting 5 μl of compound into 10 μl of DMSO. The serially diluted compound was then diluted 1:33 into DMEM. This medium was then diluted ten-fold into the culture medium with the cells (10 μl/well). All concentration points are assayed in duplicate. Plates were incubated at 37° C. for 20 hours.
Luciferase activity Readout: After the incubation 20 μl of culture medium were removed from each well and mixed with 50 μl of assay solution (Pierce™ Gaussia Luciferase Flash Assay Kit). The luminescence was measured immediately after addition of the Luc substrate with an Envision microplate reader.
Data Reduction and Analysis: The raw data was uploaded to CDD and dose-response curves were generated using the Levenberg-Marquardt algorithm integrated into CDD. As a positive control 10 uM XL-335 and as a negative control DMSO is included on each plate and used to normalize the data with the CDD built-in normalization function.
(A reporter such as luciferase makes a cellular process visible.)

In the next data set the test system is Mouse SHP. Kind of data set: Gene Expression Assay (liver qPCR after p.o. dosing). The format is in vivo. Particulars: C57BL/6 mice, 10 mg/kg p.o., liver collected 4 hours post dosing. The procedure:
C57BL/6 mice (3 per group) were dosed p.o. with 10 mg/kg of compound 20. Livers were collected at 4 hours post dosing and transferred into RNALater solution immediately. Tissues were stored at 4° C. until RNA isolation. RNA was isolated, quantified and amplified; qPCR was performed using SuperScript® III Platinum® SYBR®Green One-Step qRT-PCR Kit (Cat no. 11736-051). Primers used are as listed: Mouse Cyp7A1: For: (SEQ. ID NO: 1) […] Rev: (SEQ. ID NO: 2) AGTGGTGGCAAAATTCCCA; Mouse SHP: For: (SEQ. ID NO: 3) […] Rev: (SEQ. ID NO: 4) AGCCTCCTGTTGCAGGTGT; Mouse GAPDH: For: (SEQ. ID NO: 5) […] Rev: (SEQ. ID NO: 6) […].
Background: Real-time PCR tracks product formation cycle by cycle.

Another data set deals with Mouse Cyp7A1. The data set is described as above. In kind it is in vivo. Particulars: C57BL/6 mice, 10 mg/kg p.o., liver collected 4 hours post dosing. The procedure:
C57BL/6 mice (3 per group) were dosed p.o. with 10 mg/kg of compound 20. Livers were collected at 4 hours post dosing and transferred into RNALater solution immediately. Tissues were stored at 4° C. until RNA isolation. RNA was isolated, quantified and amplified; qPCR was performed using SuperScript® III Platinum® SYBR®Green One-Step qRT-PCR Kit (Cat no. 11736-051). Primers used are as listed: Mouse Cyp7A1: For: (SEQ. ID NO: 1) [NT] Rev: (SEQ. ID NO: 2) [NT]; Mouse SHP: For: (SEQ. ID NO: 3) [NT] Rev: (SEQ. ID NO: 4) [NT]; Mouse GAPDH: For: (SEQ. ID NO: 5) [NT] Rev: (SEQ. ID NO: 6) [NT]

On to `CC(C)OC(=O)C1=CN(C(=O)c2ccc(OCC[N+]3(C)CCOCC3)cc2)CC(C)(C)c2c(C(F)(F)F)n[nH]c21` [compound 13], for which the “activation compared to the positive control” value at FXR is “inactive”.

Regarding `CCOC(=O)C1=CN(C(=O)N2CC[N+](C)(C)CC2)CC(C)(C)c2c1[nH]c1ccccc21.[I-]` [compound 20, 4-(5-(ethoxycarbonyl)-1,1-dimethyl-1,2,3,6-tetrahydroazepino[4,5-b]indole-3-carbonyl)-1,1-dimethylpiperazin-1-ium iodide], at FXR, the “activation compared to the positive control” value is listed as 86%. In the data set with Mouse SHP, the “Avg. % mRNA induction, SHP” value is reported as 266%. In addition, in the data set on Mouse Cyp7A1, the “Avg. % mRNA induction, CYP7a” value is listed as 57%.

These data come from patent US10421759B2, “Fused bicyclic compounds for the treatment of disease” (AKARNA THERAPEUTICS, LTD., priority 2015, dated 2019).
